Key:
[1] = molecular target: T1, CLIP-tag enzyme (CLIPtag-mGluR2 fusion protein) (Homo sapiens, UniProt P16455, A121V/A127T/A154D/C150Q/C62A/G131N/G132T/G153S/K125A/K32I/L33F/M134L/M60I/N157P/Q115S/Q116H/R128A/R135D/S151G/S152D/S159L/Y114E); experiment: Cell model with CLIPtag-mGluR2 and SNAPtag-mGluR2 cotransfection, TR-FRET at 665 nm; type: cell-based; details: cells incubated with 300 nM of BG-methylbenzamide-Tb(KR); TR-FRET; read-out: half saturation concentration of CLIPtag
T1 construct: The co-expressed SNAPtag-mGluR2 is a separate chain that carries the FRET partner dye
T1 sequence (P16455 1-207 K32I/L33F/M60I/C62A/Y114E/Q115S/Q116H/A121V/K125A/A127T/R128A/G131N/G132T/M134L/R135D/C150Q/S151G/S152D/G153S/A154D/N157P/S159L): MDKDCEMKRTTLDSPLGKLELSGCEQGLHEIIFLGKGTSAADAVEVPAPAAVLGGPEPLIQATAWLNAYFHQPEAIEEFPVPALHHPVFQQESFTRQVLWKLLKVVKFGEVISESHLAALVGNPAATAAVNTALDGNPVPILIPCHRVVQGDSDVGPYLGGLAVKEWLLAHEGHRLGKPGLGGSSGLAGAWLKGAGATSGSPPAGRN
Description: (§1) The cell model used in this example is different from that used in the preceding examples:
(§2) The cells are either cotransfected with a plasmid coding for the fusion protein CLIPtag-mGluR2 and another plasmid coding for the fusion protein SNAPtag-mGluR2, or transfected with a single plasmid coding for the fusion protein SNAPtag-mGluR2.
(§3) Each cell population is incubated in the presence of 300 nM of BG-methylbenzamide-DY647 and increasing concentrations of reference substrates (BC-Tb(KR)) or of a substrate according to the invention (BC-methylbenzamide-Tb(KR)). The fluorescence is measured at 665 nm in TR-FRET mode on a Rubystar machine and the signal measured is representative of a transfer of energy following the dimerization of two monomers of mGluR2 labeled respectively by DY647 and Tb(KR).
(§4) This example is carried out in the same way as example 7 but the cells are incubated in the presence of 300 nM of BG-methylbenzamide-Tb(KR) and increasing concentrations of reference substrate (BC-DY647) or of substrate according to the invention (BC-methylbenzamide-DY647), the formulae of which are below: […]

[2] = molecular target: T2, SNAP-tag-ST26 enzyme (SNAP-tag-mGluR2 fusion protein) (Homo sapiens, UniProt P16455, A127T/C150S/C62A/G131K/G132T/K125A/M134L/N157G/R128A/R135S/S159E); experiment: Enzymatic reactivity test in a cell model, SNAP-tag-mGluR2 expressed by COS 7 cells; type: cell-based; details: living COS 7 cells, labeling 1 h at 37° C., read-out: half saturation concentration of the enzyme
T2 construct: expressed in transfected cells; host or cells: COS 7 cells, transient electroporation
T2 sequence (P16455 1-182 C62A/K125A/A127T/R128A/G131K/G132T/M134L/R135S/C150S/N157G/S159E limits assumed): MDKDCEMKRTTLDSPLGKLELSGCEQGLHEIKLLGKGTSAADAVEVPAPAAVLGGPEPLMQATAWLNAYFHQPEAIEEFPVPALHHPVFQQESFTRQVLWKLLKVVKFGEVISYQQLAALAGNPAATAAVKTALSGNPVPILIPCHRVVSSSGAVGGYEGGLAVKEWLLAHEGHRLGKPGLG
Description: This procedure makes it possible to test the reactivity of substrates according to the invention with an AGT expressed by COS 7 cells in the form of a fusion protein with the type 2 glutamate transmembrane receptor (mGluR2).
Various mutants of AGT were analyzed in this study: SNAP-tag-ST26 or CLIP-tag from Covalys or the N-AGT mutant described by Gronemeyer et al. (Protein Engineering, Design & Selection, Vol. 19, No. 7, pp. 309-316, 2006).
• SNAP-tag-mGluR2 plasmid, prepared from the pSET-26b plasmid according to the protocol of the commercial kit (SNAP express pSTE7-26b kit, Covalys Biosciences) • Invitrogen pcdna3.1 plasmid. This plasmid is used as a negative control; the cells transfected with this plasmid are denoted “mock” and make it possible to determine the level of non-specific labeling. Protocol:
The transient transfection of the cells is carried out by electroporation using a Biorad electroporator: 10 million cells are transfected by 1 μg SNAP-tag-mGluR2+3 μg pcdna3.1 in a final volume of 300 μl. The electroporation parameters are: 280 V & 1000 μF.
The cells are then seeded at 150 000 cells per well in Greiner plates (opaque black bottom) previously incubated with polyornithine for 30 minutes at 37° C.
The cells are cultured in the DMEM+Phenol Red+10% FCS+penicillin/streptomycin+non-essential amino acids medium at 37° C. and 5% CO2. After 24 h of expression, a first washing operation is carried out with 100 μl of this same medium.
The labeling of the AGT-mGluR2 fusion protein takes place in 100 μl of complete medium with increasing concentrations of BG-fluorophore or BG-L1-A-L2-fluorophore according to the invention for 1 h at 37° C. Before the reading, 4 washing operations are carried out with 100 μl of Tris-Krebs.
For the substrates bearing fluorophores ATTO647 (example 2), DY647 (examples 1 and 5) and fluorescein-5-EX (example 3), the reading is carried out in 100 μl of Tris-Krebs in direct fluorescence at 682 nm on a Rubystar machine, and at 520 nm for those bearing fluorescein-5-EX (example 3).
For the substrates bearing the terbium KR complex (examples 4 and 6), the reading is taken in 100 μl of Tris-Krebs in time-resolved fluorescence at 620 nm on a Rubystar machine.

[3] = molecular target: T3, SNAP-tag enzyme (GST-SNAP-tag-FKBP fusion protein) (Homo sapiens, UniProt P16455, A127T/C150S/C62A/G131K/G132T/K125A/M134L/N157G/R128A/R135S/S159E); experiment: Enzymatic reactivity test in an in vitro model (TR-FRET labeling of GST-SNAPtag-FKBP recombinant protein); type: biochemical; details: for reactivity of the substrate with the SNAP-tag enzyme: in vitro protein labeling, compared with reference substrate
T3 construct: GST (N)
T3 sequence (P16455 1-182 C62A/K125A/A127T/R128A/G131K/G132T/M134L/R135S/C150S/N157G/S159E limits assumed): T2 sequence (P16455 1-182 C62A/K125A/A127T/R128A/G131K/G132T/M134L/R135S/C150S/N157G/S159E limits assumed)
Description: The test of reactivity of the substrates according to the invention with the SNAP-tag enzyme is based on an in vitro test of labeling a recombinant protein.
In this case, use is made of the FRB and FKBP proteins that interact in the presence of rapamycin.
The FKBP protein is labeled by a first fluorophore via SNAP-tag technology: for this, a GST-SNAPtag-FKBP fusion protein is produced from the pSET7-26b plasmid according to the protocol of the commercial kit (SNAP express pSET7-26b kit, Covalys Biosciences AG, Witterswil/Switzerland). This fusion protein is then brought into contact with the first fluorophore conjugated to a reference BG derivative or to a BG derivative according to the invention.
The FRB protein is itself coupled via conventional conjugation techniques with a donor fluorescent compound (europium TBP cryptate (KTBP), Cisbio Bioassay) or acceptor fluorescent compound (DY647, Dyomics) depending on the case, following the protocols provided with these products.
The table below explains the nature of the pairs of fluorophores in each of the following examples 1 to 4:
In each example, 2 nmol of FRB recombinant protein labeled with a europium cryptate or DY647 (2nd fluorophore) are co-incubated at ambient temperature with 2 nmol of GST-SNAP-tag-FKBP recombinant protein and increasing concentrations of BG labeled by the first fluorophore (BG-fluorophore of the prior art or BG-L1-A-L2-fluorophore according to the invention).
The fluorescence readings are taken at 620 nm and at 665 nm on a RubyStar machine (BMG laboratory) after an excitation at 337 nm. The readings are carried out before and after induction of the FRB/FKBP protein interaction by 100 nM of rapamycin. This interaction is expressed by the emission of a TR-FRET signal. Since the SNAP-tag enzyme can only attach to a single fluorescent group, the increase in the TR-FRET signal is directly proportional to the percentage of labeled proteins in the reaction medium. This in vitro model makes it possible to establish enzymatic labeling kinetics as a function of the excess of substrate involved in the reaction.
The results are indicated either as d665 or as % labeling according to the following formulae: d 665=(signal at 665 nm with the GST-ST-FKBP protein)−(signal at 665 nm without the GST-ST-FKBP protein).
The percentage of labeling is obtained by comparison with the signal corresponding to the maximum labeling that is obtained after 18 hours of incubation. % labeling=(d665 at t measured/d665 18 h of incubation)×100. Procedure of the Enzymatic Reactivity Test in a Cell Model

[4] = molecular target: T4, CLIP-tag enzyme (CLIPtag-mGluR2 fusion protein) (Homo sapiens, UniProt P16455, K32I/L33F/M60I/C62A/Y114E/Q115S/Q116H/A121V/K125A/A127T/R128A/G131N/G132T/M134L/R135D/C150Q/S151G/S152D/G153S/A154D/N157P/S159L); experiment: Cell model with CLIPtag-mGluR2 and SNAPtag-mGluR2 cotransfection, TR-FRET at 665 nm; type: cell-based; details: cells incubated with 300 nM of BG-methylbenzamide-DY647; TR-FRET 665 nm; read-out: half saturation concentration of CLIPtag
T4 construct: The co-expressed SNAPtag-mGluR2 is a separate chain that carries the FRET partner dye
T4 sequence (P16455 1-207 K32I/L33F/M60I/C62A/Y114E/Q115S/Q116H/A121V/K125A/A127T/R128A/G131N/G132T/M134L/R135D/C150Q/S151G/S152D/G153S/A154D/N157P/S159L): T1 sequence (P16455 1-207 K32I/L33F/M60I/C62A/Y114E/Q115S/Q116H/A121V/K125A/A127T/R128A/G131N/G132T/M134L/R135D/C150Q/S151G/S152D/G153S/A154D/N157P/S159L)
Description: as §1, §2, §3, §4

Q: How did the EC50 [1] turn out when `CCN1/C(=C/C=C/C=C/C2=[N+](CC)c3ccc(S(=O)(=O)[O-])cc3C2(C)C)C(C)(CCCC(=O)NCc2ccc(COc3nccc(N)n3)cc2)c2cc(S(=O)(=O)O)ccc21` (stereo not drawn) [BC-DY647, benzylcytosine-DY647, reference compound] was run?
A: Its EC50 is 1570 nM.

Q: Which EC50 [2] does the source give for `Nc1ccc2cc3ccc(N)cc3[n+](CCCC(=O)NCc3ccc(C(=O)NCc4ccc(COc5cc(N)nc6[nH]cnc56)cc4)cc3)c2c1` [BG-methylbenzamide-Atto465, Atto465-methylbenzamide-BG] here?
A: The EC50 was 213 nM.

Q: How did the EC50 [1] turn out when `CCN1/C(=C/C=C/C=C/C2=[N+](CC)c3ccc(S(=O)(=O)[O-])cc3C2(C)C)C(C)(CCCC(=O)NCc2ccc(C(=O)NCc3ccc(COc4nccc(N)n4)cc3)cc2)c2cc(S(=O)(=O)O)ccc21` (stereo not drawn) [BC-methylbenzamide-DY647, DY647-methylbenzamide-BC] was run?
A: The EC50 was 240 nM.

Q: “Tb(KR)-aminomethylnicotinamide-benzylguanine [BG-aminomethylnicotinamide-Tb(KR)]” was tested. Which “reactivity of the substrate with the SNAP-tag enzyme” value (shortened to “reactivity of the substrate”) [3] did it give?
A: The value was “Results similar to those obtained with the compounds of the preceding examples”.

Q: Which EC50 [4] does the source give for “Tb(KR)-methylbenzamide-BC [BC-methylbenzamide-Tb(KR)]” here?
A: Its EC50 is 131 nM.

Q: With `Nc1nc(OCc2ccc(CNC(=O)c3ccc(CNC(=O)CCSCC(=O)Nc4ccc(-c5c6ccc(=O)cc-6oc6cc(O)ccc56)c(C(=O)O)c4)cc3)cc2)c2nc[nH]c2n1` [BG-methylbenzamide-fluorescein-5-EX, fluorescein-5-EX-benzylamide-BG] as the compound, how does the “reactivity of the substrate” value [3] read?
A: Its value is “better than that of the reference substrate”.

Q: For “Tb(KR)-methylbenzamide-BG [BG-methylbenzamide-Tb(KR)]”, which “reactivity of the substrate” value [3] is on record?
A: Its value is “much better reactivity”.

Q: What about the EC50 [2] of the same compound?
A: Its EC50 is 15.4 nM.

Q: With `CCN1c2cc3c(cc2C(C)=CC1(C)C)C(c1ccc(C(=O)N(C)CCCC(=O)NCc2ccc(C(=O)NCc4ccc(COc5nc(N)nc6[nH]cnc56)cc4)cc2)cc1)=c1cc2c(cc1O3)=[N+](CC)C(C)(C)C=C2C` [BG-methylbenzamide-ATTO647N, ATTO647N-methylbenzamide-BG] as the compound, how does the “percentage of labeling of the SNAP-tag enzyme compared with the reference substrate” value ([3]; in vitro, after 30 min of incubation, regardless of the concentration of substrate) read?
A: Its value is “much better”.

Reference: patent US9024022B2, “Substrates of O6-alkylguanine-DNA alkyltransferase and mutants thereof” (Cis Bio International, priority 2008, dated 2015)
